US20050181462A1, “Mutant androgen receptor, cancer cells expressing the same, a method of producing them and use thereof” (priority 2002, published 2005)

Target: T1, W741C type mutant AR (Homo sapiens, UniProt P10275, DUP77-80/W742C)
T1 construct: expressed in transfected cells; host or cells: Cos-7
Test: Antagonist screening: inhibition of DHT-induced W741C mutant AR transcription activity (luciferase co-transfection)
Assay type: cell-based
Settings: 40 nM DHT + 10 μM Compound A
Excerpt: FIG. 4 is a drawing showing the antagonistic action of Compound A on a W741C type mutant AR. […] Mean±standard error, n=16 for the only-DHT addition group and n=4 for the DHT+Compound A addition group.

T1 sequence (P10275 with tags, fused parts or gaps DUP77-80/W742C): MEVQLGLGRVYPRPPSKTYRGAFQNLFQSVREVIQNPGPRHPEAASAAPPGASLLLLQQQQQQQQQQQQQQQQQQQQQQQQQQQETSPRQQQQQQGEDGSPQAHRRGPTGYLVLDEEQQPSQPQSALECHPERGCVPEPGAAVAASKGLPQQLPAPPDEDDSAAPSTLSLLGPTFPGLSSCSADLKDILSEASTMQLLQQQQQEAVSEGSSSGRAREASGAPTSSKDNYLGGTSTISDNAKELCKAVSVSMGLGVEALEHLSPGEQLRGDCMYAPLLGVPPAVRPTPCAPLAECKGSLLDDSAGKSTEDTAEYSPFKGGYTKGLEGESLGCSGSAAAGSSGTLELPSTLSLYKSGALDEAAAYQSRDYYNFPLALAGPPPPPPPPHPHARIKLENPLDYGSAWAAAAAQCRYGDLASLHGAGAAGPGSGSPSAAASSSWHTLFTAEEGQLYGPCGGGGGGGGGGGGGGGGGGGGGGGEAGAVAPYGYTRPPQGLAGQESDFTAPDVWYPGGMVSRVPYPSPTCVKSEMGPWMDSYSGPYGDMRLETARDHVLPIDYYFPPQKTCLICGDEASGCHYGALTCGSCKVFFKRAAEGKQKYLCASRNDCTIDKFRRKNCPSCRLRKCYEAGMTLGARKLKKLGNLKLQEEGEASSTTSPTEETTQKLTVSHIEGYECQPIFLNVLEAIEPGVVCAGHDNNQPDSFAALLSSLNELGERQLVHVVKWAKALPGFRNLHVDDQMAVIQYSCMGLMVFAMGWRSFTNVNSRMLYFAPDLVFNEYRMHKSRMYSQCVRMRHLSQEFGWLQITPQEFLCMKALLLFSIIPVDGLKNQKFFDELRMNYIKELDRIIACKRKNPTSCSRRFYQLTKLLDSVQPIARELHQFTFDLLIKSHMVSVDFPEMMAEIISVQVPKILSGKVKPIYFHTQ

action on W741C type mutant AR transcription activity of DHT: antagonist action
Compound: CCOC(=O)c1c(C)[nH]c(C)c1-c1ccc([N+](=O)[O-])cc1 [Compound A, ethyl 2,5-dimethyl-4-(4-nitrophenyl)-1H-pyrrole-3-carboxylate]
